The assay deals with 699152-130-R-J1-PDC complex spheroid viability. The experiment in a line: Anticancer human tumor 699152-130-R-J1-PDC patient-derived pancreatic carcinoma cell line growth inhibition [POLQ]. Conditions: for viability, T/C: stronger effect = lower value. The method, then:
Multicellular complex tumor spheroid response to Polymerase (POL) inhibitors (novobiocin, ART-558, RP6685) in combination with a variety of drugs and investigational agents in selected tumor cell lines
The POL inhibitors (novobiocin, ART-558, and RP6685) were evaluated both individually and in combination with standard of care and investigational anticancer small molecules within a complex spheroid model of solid tumors. . Complex spheroids include a stromal component modeled by human endothelial cells (HUVEC) and fibroblasts modeled by human mesenchymal stem cells (MSCs). The concentration ranges selected for each drug and investigational agent were based upon clinically achievable concentrations if the clinical Cmax of the agent was known.
Compounds. The drugs and investigational agents: novobiocin (NSC847541), ART-558 (NSC835418), RP-6685 (NSC848927), peposertib (NSC802822), ceralasertib (NSC780249), elimusertib (NSC800525), camonsertib (NSC841442), AZD-1390 (NSC803789), olaparib (NSC753686), talazoparib (NSC767125), rucaparib (NSC756644), sotorasib (NSC818433), MRTX-1133 (NSC836407), SN-38 (NSC673596), topotecan (NSC609699), epotoside (NSC141540), doxorubicin (NSC123127), gemcitabine (NSC613327), 5-fluorouracil (NSC19893), paclitaxel (NSC125973), vemurafenib (NSC761431), MSA-2 (NSC828583), SN-011 (NSC837082), adavosertib (NSC754352), prexasertib (NSC758257), carboplatin (NSC241240) and oxaliplatin (NSC266046), were obtained from the National Cancer Institute (NCI) Developmental Therapeutics Program Chemical Repository (21). The FDA-approved anticancer drug set is available from the Developmental Therapeutics Program at https://dtp.cancer.gov/organization/dscb/obtaining/. […] The stock solutions were prepared in dimethyl sulfoxide (DMSO, Sigma-Aldrich, St. Louis, MO, cat. D2650), except for the platinum compounds which were prepared in saline (Quality Biological, Gaithersburg, MD, cat. 114-055-101), at 800-fold the tested concentration and stored at -70 degrees C prior to their use. All drugs and investigational agents were tested over a range starting from a high concentration at or near the clinical Cmax and decreasing in half-log increments. If the clinical Cmax for an agent had not been determined, the highest concentration tested was 10 microM, except for SN-38, which was tested at a high concentration of 1 microM.
Cell Culture. All cells were maintained in an incubator at 37 degrees C and 5% CO2 with 95% humidity. The PDC lines were cultured according to standard operating procedures established by the NCI PDMR (https://pdmr.cancer.gov). Table 3 of the manuscript, lists the cell lines along with the number of the three cell types plated to form the mct-spheroids and media for tumor cell growth. After thawing, all PDC lines, except 997537-175-T-J1-PDC and 415267-285-R-J2-PDC, were cultured in Matrigel-coated flasks prepared with a working solution of 1X Ham's F-12 nutrient mix, without supplementation (Thermo Fisher Scientific, cat. 11765054), 100 U/mL penicillin-streptomycin (Thermo Fisher Scientific, cat. 15140122), and 2.5% Matrigel (Corning Inc., Corning, NY, cat. 354248) for the first three passages. The two PDC lines 997537-175-T-J1-PDC and 415267-285-R-J2-PDC were cultured on uncoated flasks. The 857933-349-R-J2-PDC line was cultured in 6C/Colon 1B media containing advanced DMEM/F-12 (Thermo Fisher Scientific, cat. 12634028), 10 mM HEPES (Thermo Fisher Scientific, cat. 15630080), 1X GlutaMAX supplement (Thermo Fisher Scientific, cat. 35050061), 0.1 mg/mL primocin (InvivoGen, San Diego, CA, cat. ant-pm-2), 10% defined fetal bovine serum, heat inactivated (HyClone Laboratories Inc., Logan, UT, cat. SH30070.03HI), 50% L-WRN conditioned media (ATCC, cat. CRL-3276), 1.25 mM N-Acetyl-L-cysteine (Sigma-Aldrich, cat. A9165), 10 mM nicotinamide (Sigma-Aldrich, cat. N0636), 1X B-27 supplement (Thermo Fisher Scientific, cat. 17504044), 1X N-2 supplement (Thermo Fisher Scientific, cat. […]

The mark [1] stands for this setting: curve of first compound, second compound 0.0316 µM.
Where [2] appears, read: curve of first compound, second compound 0.1 µM.
Where [3] appears, read: curve of first compound, second compound 0.316 µM.
Where [4] appears, read: curve of first compound, second compound 1 µM.
[5] abbreviates: curve of first compound, second compound 3.16 µM.
Where [6] appears, read: curve of first compound, second compound 10 µM.
[7] abbreviates: second compound 0.0316 µM, first compound 0.0316 µM.
Setting [8] is: second compound 0.0316 µM, first compound 0.1 µM.
Where [9] appears, read: second compound 0.0316 µM, first compound 0.316 µM.
Setting [10] is: second compound 0.0316 µM, first compound 1 µM.
Setting [11] is: second compound 0.0316 µM, first compound 3.16 µM.
Where [12] appears, read: second compound 0.0316 µM, first compound 10 µM.
[13] abbreviates: second compound 0.1 µM, first compound 0.0316 µM.
Setting [14] is: second compound 0.1 µM, first compound 0.1 µM.
Setting [15] is: second compound 0.1 µM, first compound 0.316 µM.
Setting [16] is: second compound 0.1 µM, first compound 1 µM.
[17] abbreviates: second compound 0.1 µM, first compound 3.16 µM.
Where [18] appears, read: second compound 0.1 µM, first compound 10 µM.
Setting [19] is: second compound 0.316 µM, first compound 0.0316 µM.
Setting [20] is: second compound 0.316 µM, first compound 0.1 µM.
Setting [21] is: second compound 0.316 µM, first compound 0.316 µM.
The mark [22] stands for this setting: second compound 0.316 µM, first compound 1 µM.
Setting [23] is: second compound 0.316 µM, first compound 3.16 µM.
The mark [24] stands for this setting: second compound 0.316 µM, first compound 10 µM.
Setting [25] is: second compound 1 µM, first compound 0.0316 µM.
Setting [26] is: second compound 1 µM, first compound 0.1 µM.
Where [27] appears, read: second compound 1 µM, first compound 0.316 µM.
Where [28] appears, read: second compound 1 µM, first compound 1 µM.
[29] abbreviates: second compound 1 µM, first compound 3.16 µM.
The mark [30] stands for this setting: second compound 1 µM, first compound 10 µM.
Setting [31] is: second compound 3.16 µM, first compound 0.0316 µM.
[32] abbreviates: second compound 3.16 µM, first compound 0.1 µM.
Where [33] appears, read: second compound 3.16 µM, first compound 0.316 µM.
The mark [34] stands for this setting: second compound 3.16 µM, first compound 1 µM.
Where [35] appears, read: second compound 3.16 µM, first compound 3.16 µM.
[36] abbreviates: second compound 3.16 µM, first compound 10 µM.
The mark [37] stands for this setting: second compound 10 µM, first compound 0.0316 µM.
[38] abbreviates: second compound 10 µM, first compound 0.1 µM.
Setting [39] is: second compound 10 µM, first compound 0.316 µM.
Where [40] appears, read: second compound 10 µM, first compound 1 µM.
Where [41] appears, read: second compound 10 µM, first compound 3.16 µM.
Where [42] appears, read: second compound 10 µM, first compound 10 µM.

Where “and” joins values, the source holds several entries; their conditions need not be identical. Identical values can stand only once. A value given as a limit tells only on which side of the number the result lay.

Broadly, the viability, T/C is the ratio of treated to control. The term IC50 denotes the concentration at which inhibition is half-maximal.
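Further: spheroids exposed to agents for 7 days before viability reading.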
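Wherever viability, T/C is given: percent of DMSO vehicle control viability so 100% = vehicle and 0% = no viable signal.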

Turning to `CC1COCCN1c1cc(C2(O)CC3CCC(C2)O3)c2cnn(-c3ccn[nH]3)c2n1` (centres undefined), the viability, T/C is, setting by setting: (compound 0.0316 µM) 85.2% and 93.5% and 88.1%; (compound 0.1 µM) 80.7% and 83.5% and 80%; (compound 0.316 µM) 65.9% and 63.9% and 67.3%; (compound 1 µM) 56% and 53.3% and 57.5%; (compound 3.16 µM) 47.1% and 48.7% and 44.4%; (compound 10 µM) 35.8% and 33.2% and 36.5%. Also, the IC50 (curve of compound) was 1.99 µM and 1.72 µM and 1.94 µM.

In the case of `CC(C)n1c(=O)n(C)c2cnc3cc(F)c(-c4ccc(OCCCN5CCCCC5)nc4)cc3c21`, the viability, T/C is 93.3% and 103% and 119% (compound 0.0316 µM); 88.1% and 91.7% and 92.8% (compound 0.1 µM); 98.6% and 105% and 99.7% (compound 0.316 µM); 110% and 102% and 97.5% (compound 1 µM); 96.3% and 110% and 87.4% (compound 3.16 µM); 87.1% and 91.8% and 85.5% (compound 10 µM). Further, the IC50 (curve of compound) was over 10 µM.

As to `COc1cc2cc(C(=O)CCC(=O)O)sc2cc1OC` + COC1C(OC(N)=O)C(O)C(Oc2ccc3c(O)c(NC(=O)c4ccc(O)c(CC=C(C)C)c4)c(=O)oc3c2C)OC1(C)C, the half-maximal inhibitory concentration (IC50) is over 10 µM under setting [1]; over 10 µM under setting [2]; over 10 µM under setting [3]; over 10 µM under setting [4]; over 10 µM under setting [5]; over 10 µM under setting [6]. Besides, the viability, T/C under setting [7] is 104%; the viability, T/C under setting [8] is 113%; the viability, T/C under setting [9] was 97.1%; the viability, T/C under setting [10] is 95.8%; the viability, T/C under setting [11] was 106%; the viability, T/C under setting [12] is 103%. Besides, the viability, T/C is, setting by setting: under setting [13], 91.2%; under setting [14], 109%; under setting [15], 94.3%; under setting [16], 93.7%; under setting [17], 103%; under setting [18], 97.5%. Also, the viability, T/C was 107% under setting [19]; 110% under setting [20]; 105% under setting [21]; 108% under setting [22]; 101% under setting [23]; 95.8% under setting [24]. Further, the viability, T/C reads like this: under setting [25], 110%; under setting [26], 105%; under setting [27], 93%; under setting [28], 102%; under setting [29], 98.6%; under setting [30], 103%. Further, the viability, T/C is 110% under setting [31]; 98.6% under setting [32]; 107% under setting [33]; 92.4% under setting [34]; 109% under setting [35]; 102% under setting [36]. For the same compound, the viability, T/C by setting is: under setting [37], 113%; under setting [38], 100%; under setting [39], 120%; under setting [40], 107%; under setting [41], 98.8%; under setting [42], 106%.

Take `C=CC(=O)N1CCN(c2nc(=O)n(-c3c(C)ccnc3C(C)C)c3nc(-c4c(O)cccc4F)c(F)cc23)C(C)C1` (centres undefined): the viability, T/C (compound 0.0316 µM) was 105% and 104% and 110%; the viability, T/C (compound 0.1 µM) is 103% and 99.2% and 98%; the viability, T/C (compound 0.316 µM) was 108% (2×) and 115%; the viability, T/C (compound 1 µM) is 113% and 97.7% and 121%; the viability, T/C (compound 3.16 µM) is 118% and 115% and 113%; the viability, T/C (compound 10 µM) was 109% and 106% and 105%. Where the note is “curve of compound”, the IC50 was over 10 µM.

As to `O=c1[nH]cc(F)c(=O)[nH]1` + Nc1ccc(C#CCN(C(=O)Cc2ncc(C(F)(F)F)cc2C(F)(F)F)c2ccc(F)cc2)nn1, the IC50 by setting is: under setting [1], over 10 µM; under setting [2], over 10 µM; under setting [3], over 10 µM; under setting [4], over 10 µM; under setting [5], over 10 µM; under setting [6], over 10 µM. The viability, T/C is, setting by setting: under setting [7], 105%; under setting [8], 105%; under setting [9], 99.3%; under setting [10], 97.9%; under setting [11], 98.1%; under setting [12], 82.1%. Also, the viability, T/C under setting [13] was 100%; the viability, T/C under setting [14] is 121%; the viability, T/C under setting [15] is 104%; the viability, T/C under setting [16] was 88.7%; the viability, T/C under setting [17] is 97.3%; the viability, T/C under setting [18] was 76.9%. Besides, the viability, T/C reads like this: under setting [19], 108%; under setting [20], 104%; under setting [21], 103%; under setting [22], 102%; under setting [23], 97.5%; under setting [24], 81.5%. The viability, T/C runs as follows: under setting [25], 113%; under setting [26], 95.5%; under setting [27], 97.6%; under setting [28], 103%; under setting [29], 87.8%; under setting [30], 75.9%. Besides, the viability, T/C was 111% under setting [31]; 104% under setting [32]; 93.9% under setting [33]; 95.6% under setting [34]; 104% under setting [35]; 88.4% under setting [36]. Also, the viability, T/C by setting is: under setting [37], 116%; under setting [38], 110%; under setting [39], 119%; under setting [40], 105%; under setting [41], 105%; under setting [42], 87.7%.

Turning to `CC1COCCN1c1cc(C2(S(C)(=N)=O)CC2)nc(-c2ccnc3[nH]ccc23)n1` (centres undefined), the viability, T/C reads like this: (compound 0.0316 µM) 105% and 93.7% and 91.8%; (compound 0.1 µM) 102% and 97.1% and 94.4%; (compound 0.316 µM) 90.2% and 91.5% and 105%; (compound 1 µM) 88.6% and 97.4% and 88.8%; (compound 3.16 µM) 76% and 82.6% and 74%; (compound 10 µM) 73.1% and 68.3% and 65.9%. Besides, where the note is “curve of compound”, the 50% inhibitory concentration (IC50) is over 10 µM.

Consider `Nc1ccn(C2OC(CO)C(O)C2(F)F)c(=O)n1` (centres undefined), for which the viability, T/C (compound 0.0316 µM) was 68.9% and 75.2% and 66%; the viability, T/C (compound 0.1 µM) is 63.8% and 57.4% and 54.5%; the viability, T/C (compound 0.316 µM) was 54.8% and 51.7% and 52.1%; the viability, T/C (compound 1 µM) is 49.3% and 52.1% and 41.2%; the viability, T/C (compound 3.16 µM) is 44.3% and 51.1% and 40.1%; the viability, T/C (compound 10 µM) was 39.6% and 44.7% and 36%. Also, the IC50 (curve of compound) was 0.917 µM and 0.786 µM and 0.277 µM.

Source of the values: PubChem BioAssay AID1963835 (Molecular Pharmacology Branch, DTP, NCI, 2024).
